What is called EC50 is the concentration at which the effect is half-maximal.

Among the data in ChEMBL document CHEMBL4619784, “Exploiting Existing Molecular Scaffolds for Long-Term COVID Treatment” (ACS Med Chem Lett, 2020) are EC50 values, retold here.

The test system of this assay is SARS-CoV. The assay can be described thus: Antiviral activity against SARS coronavirus Urbani infected in monkey Vero E6 cells assessed as reduction in virus-induced cytopathogenicity incubated for 48 hrs by CellTiter-Glo luminescent cell viability assay. Particulars: Severe acute respiratory syndrome-related coronavirus, Vero C1008, 48 h. The format is functional, organism-based. On the technique in general: Damage to the host cells serves as the signal in cytopathic effect assays.

Structures are written as SMILES.

With `Cc1ccc(N)cc1C(=O)N[C@H](C)c1cccc2ccccc12`, the EC50 was determined as 10 µM.
